Reference: article PMC3395220 (Journal of Medicinal Chemistry, 2012)

Legend:
SK-MEL-2 melanoma cells = experiment: Subcutaneous SK-MEL-2 melanoma xenograft; format: in vivo, athymic nu/nu mice; settings: ip 8 mg/kg q4dx3, positive control
[1] = system: panel of 12 tumor cell lines implanted in mice; experiment: NCI hollow fiber assay; format: in vivo
A549/ATCCC = settings: read-out: Average GI50; A549, NSCL; ref historical data at the NCI; cited from earlier work
COLO 205 = settings: read-out: Average GI50; COLO205, colon; ref historical data at the NCI; cited from earlier work
SK-MEL-5 = settings: read-out: Average GI50; SK-MEL-5, melanoma; ref historical data at the NCI; cited from earlier work
IGROV1 = settings: read-out: Average GI50; IGROV 1, ovarian; ref historical data at the NCI; cited from earlier work
OVCAR-8 = settings: read-out: Average GI50; OVCAR-8, ovarian; ref historical data at the NCI; cited from earlier work
MDA-MB-231/ATCC = settings: read-out: Average GI50; MDA-MB-231, breast; ref historical data at the NCI; cited from earlier work
SF-295 = settings: read-out: Average GI50; SF-295, CNS; ref historical data at the NCI; cited from earlier work
U251 = settings: read-out: Average GI50; U251, CNS; ref historical data at the NCI; cited from earlier work

Row | Molecule | growth of SK-MEL-2 human melanoma xenografts (SK-MEL-2 melanoma cells) | hollow fiber assay total score ([1]; 12 tumor cell lines, daily ip for four days) | hollow fiber assay intraperitoneal score ([1]; intraperitoneal implants) | hollow fiber assay subcutaneous score ([1]; subcutaneous implants) | GI50 (A549/ATCCC) [nM] | GI50 (COLO 205) [nM] | GI50 (SK-MEL-5) [nM] | GI50 (IGROV1) [nM] | GI50 (OVCAR-8) [nM] | GI50 (MDA-MB-231/ATCC) [nM] | GI50 (SF-295) [nM] | GI50 (U251) [nM]
1 | COc1cccc2c1C(=O)c1c(O)c3c(c(O)c1C2=O)C[C@@](O)(C(=O)CO)C[C@@H]3O[C@H]1C[C@H](N)[C@H](O)[C@H](C)O1 [doxorubicin, reference compound] | markedly delayed |  |  |  |  |  |  |  |  |  |  | 
2 | mithramycin [Compound 1] |  | 58/96 | 34/48 | 24/48 | 79 | 63 | 63 | 158 | 79 | 166 | 79 | 63
